Values of other authors as cited in US20100183687A1, “PROCESS FOR PREPARING PARTICLES OF OPIOIDS AND COMPOSITIONS PRODUCED THEREBY” (priority 2009, published 2010).

Conditions: water

## COc1ccc2c3c1O[C@H]1C(=O)CC[C@@]4(O)[C@@H](C2)N(C)CC[C@]314.Cl [oxycodone hydrochloride]
  solubility at neutral pH: 100 mg/ml
